Measurements taken from ChEMBL document CHEMBL1201862, “PubChem BioAssay data set” (2004).
Activity calls are given as the source filed them.

Assays:
[1] = target: T1, High affinity choline transporter 1 (Homo sapiens, UniProt Q9GZV3); assay: human choline transporter blockers, potency – cell-based, 10-point CRC, membrane potential dye, dose response (AID 588401); type: functional;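 further: membrane potential dye fluorescence of choline-evoked depolarization via CHT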
T1 sequence (Q9GZV3 whole entry): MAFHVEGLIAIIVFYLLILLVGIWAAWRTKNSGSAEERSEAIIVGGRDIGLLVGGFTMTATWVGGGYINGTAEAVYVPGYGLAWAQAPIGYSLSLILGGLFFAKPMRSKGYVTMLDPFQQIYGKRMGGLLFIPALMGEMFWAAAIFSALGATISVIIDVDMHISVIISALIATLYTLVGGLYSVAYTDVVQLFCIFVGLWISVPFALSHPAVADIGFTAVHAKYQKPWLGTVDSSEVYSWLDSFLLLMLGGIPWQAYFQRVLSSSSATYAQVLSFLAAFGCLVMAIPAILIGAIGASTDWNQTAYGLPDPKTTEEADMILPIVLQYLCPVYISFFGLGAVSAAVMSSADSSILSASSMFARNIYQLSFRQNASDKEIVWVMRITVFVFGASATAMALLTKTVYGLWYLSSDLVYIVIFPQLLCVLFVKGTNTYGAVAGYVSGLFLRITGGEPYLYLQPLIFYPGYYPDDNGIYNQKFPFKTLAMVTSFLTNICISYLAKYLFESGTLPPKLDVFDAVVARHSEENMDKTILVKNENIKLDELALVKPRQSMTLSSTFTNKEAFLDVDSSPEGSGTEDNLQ

[2] = target: T1, High affinity choline transporter 1; assay: human choline transporter blockers, potency – cell-based, 5-point CRC, membrane potential dye, dose response (AID 504840); type: functional
P388/ADR = assay: cells; type: functional; conditions: Mus musculus
SN12K1 = assay: cells; type: functional; conditions: Homo sapiens
[3] = Luminescence Cell-Based Dose Confirmation HTS to Identify Inhibitors of Platelet Dense Granule Release. [Related pubchem assays: 1663 (Primary HTS), 1678 (Summary of Project)]; type: functional
P388 = assay: cells; type: functional; conditions: Mus musculus
Cytochrome P450 2C19 = Cytochrome P450 2C19 (Homo sapiens, UniProt P33261); assay: Cytochrome panel assay with activity outcomes. Panel member name: p450-cyp2c19 Compounds with AC50 equal or less than 10 uM are considered active; type: functional
[4] = NIH-3T3 fibroblast cytotoxicity, dose response, cytotoxicity control, cell-based, fluorescence, Alamar Blue, secondary assay (AID 2327); type: functional;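 further: NIH-3T3 mouse fibroblasts cultured with fluconazole at 8 µg/mL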
[5] = target: ATP-dependent molecular chaperone HSP82 (Candida albicans (strain WO-1) (Yeast), UniProt C4YTQ8); assay: steroid-induced GRE reporter decrease in yeast – S. cerevisiae, luminescence, Hsp90 inhibitor project, dose response (AID 2400); type: functional, cell-based;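 further: beta-galactosidase luminescence from glucocorticoid response element reporter as proxy for Hsp90 function; inhibitor potency where signal loss means Hsp90 inhibition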
[6] = target: T2, Serine/threonine-protein phosphatase (Candida dubliniensis (strain CD36 / CBS 7987 / NCPF 3949 / NRRLY-17841) (Yeast), UniProt B9W6M3); assay: blockers of CaCl2-induced CDRE-lacZ signaling – S. cerevisiae, luminescence, secondary, dose response (AID 2388); type: functional, cell-based;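 further: yeast reporter cells carrying a calcineurin-responsive lacZ construct stimulated with calcium chloride; luminescent beta-galactosidase reporter signal in whole cells rather than isolated phosphatase activity; potency for inhibition where a drop in reporter signal means calcineurin blockade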
T2 sequence (B9W6M3 whole entry): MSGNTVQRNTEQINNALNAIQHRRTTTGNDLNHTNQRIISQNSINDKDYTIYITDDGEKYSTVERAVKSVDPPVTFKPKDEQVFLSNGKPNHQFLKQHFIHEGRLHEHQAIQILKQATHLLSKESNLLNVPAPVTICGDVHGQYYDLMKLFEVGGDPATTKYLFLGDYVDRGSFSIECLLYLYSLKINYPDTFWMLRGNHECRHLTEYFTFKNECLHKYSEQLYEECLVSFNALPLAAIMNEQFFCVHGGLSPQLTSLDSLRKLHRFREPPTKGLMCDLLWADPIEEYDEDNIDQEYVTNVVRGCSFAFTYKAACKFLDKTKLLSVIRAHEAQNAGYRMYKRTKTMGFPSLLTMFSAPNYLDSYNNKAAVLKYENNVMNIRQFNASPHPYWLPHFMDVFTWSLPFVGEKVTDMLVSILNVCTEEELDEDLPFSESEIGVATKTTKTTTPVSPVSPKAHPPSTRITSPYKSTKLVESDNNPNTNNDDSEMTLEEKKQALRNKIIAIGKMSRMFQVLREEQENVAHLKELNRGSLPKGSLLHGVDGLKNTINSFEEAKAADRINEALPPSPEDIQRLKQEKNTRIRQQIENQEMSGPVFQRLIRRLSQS

[7] = fluconazole-exposed Candida albicans growth modulators – fluorescence, retest, confirmation (AID 2467); type: functional, cell-based
Vero = assay: viability of Vero cells under compound – cytotoxicity control for flavivirus capping enzyme inhibitors (AID 588742); type: functional; conditions: Chlorocebus sabaeus
Cytochrome P450 2C9 = Cytochrome P450 2C9 (Homo sapiens, UniProt P11712)
[8] = target: T3, Zinc finger protein mex-5 (Caenorhabditis elegans, UniProt Q9XUB2); assay: potency of MEX-5 RNA-binding blockers – biochemical, C. elegans, fluorescence polarization, dose response (AID 1960)
T3 sequence (Q9XUB2 whole entry): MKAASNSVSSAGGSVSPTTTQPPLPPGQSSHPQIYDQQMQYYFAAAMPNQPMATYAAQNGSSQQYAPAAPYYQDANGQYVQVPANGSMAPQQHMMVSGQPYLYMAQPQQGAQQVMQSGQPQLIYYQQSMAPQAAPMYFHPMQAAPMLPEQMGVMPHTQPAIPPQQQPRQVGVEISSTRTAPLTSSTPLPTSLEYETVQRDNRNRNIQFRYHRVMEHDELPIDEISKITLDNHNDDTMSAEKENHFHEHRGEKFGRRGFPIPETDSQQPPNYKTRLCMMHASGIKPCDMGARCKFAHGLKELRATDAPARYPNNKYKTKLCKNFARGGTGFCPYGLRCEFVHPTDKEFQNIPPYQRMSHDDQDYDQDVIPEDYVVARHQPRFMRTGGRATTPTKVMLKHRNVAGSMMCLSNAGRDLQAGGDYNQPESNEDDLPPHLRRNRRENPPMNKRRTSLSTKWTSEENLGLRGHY

Genome polyprotein = Genome polyprotein (dengue virus type 2, UniProt P29990); assay: flavivirus cap methylation enzyme inhibition – biochemical, confirmation dose response, primary screen (AID 588689); type: functional
Cytochrome P450 1A2 = target: T4, Cytochrome P450 1A2 (Homo sapiens, UniProt P05177);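 further: PubChem cytochrome P450 panel assay, CYP1A2 panel member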
T4 sequence (P05177 whole entry): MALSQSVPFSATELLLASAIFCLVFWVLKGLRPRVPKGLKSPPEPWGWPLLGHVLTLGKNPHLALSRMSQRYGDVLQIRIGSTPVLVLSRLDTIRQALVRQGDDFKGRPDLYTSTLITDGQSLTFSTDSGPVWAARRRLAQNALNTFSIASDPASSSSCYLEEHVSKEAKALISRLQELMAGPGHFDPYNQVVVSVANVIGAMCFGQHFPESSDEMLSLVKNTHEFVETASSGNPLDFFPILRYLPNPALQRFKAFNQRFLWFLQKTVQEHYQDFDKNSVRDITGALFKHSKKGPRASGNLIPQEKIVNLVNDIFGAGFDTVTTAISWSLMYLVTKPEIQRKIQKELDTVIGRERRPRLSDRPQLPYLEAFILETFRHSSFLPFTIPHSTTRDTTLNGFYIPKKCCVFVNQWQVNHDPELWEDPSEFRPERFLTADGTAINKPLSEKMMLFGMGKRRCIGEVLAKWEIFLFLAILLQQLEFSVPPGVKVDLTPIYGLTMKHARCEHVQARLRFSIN

[9] = target: T5, RNA-binding protein pos-1 (Caenorhabditis elegans, UniProt G5EF15); assay: disruptors of C. elegans POS-1 RNA interaction – biochemical, fluorescence polarization, dose response (AID 1964);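 further: purified POS-1 fused to maltose binding protein made in E. coli; potency of compounds blocking POS-1 binding to fluorescent RNA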
T5 sequence (G5EF15 whole entry): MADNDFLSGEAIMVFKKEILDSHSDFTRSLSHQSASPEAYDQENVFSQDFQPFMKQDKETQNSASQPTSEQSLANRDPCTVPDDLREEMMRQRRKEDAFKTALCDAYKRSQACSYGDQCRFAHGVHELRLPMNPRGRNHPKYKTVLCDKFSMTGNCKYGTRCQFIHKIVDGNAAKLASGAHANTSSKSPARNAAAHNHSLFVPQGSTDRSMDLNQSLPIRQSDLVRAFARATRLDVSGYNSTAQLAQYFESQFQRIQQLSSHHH

Bcl-2-related protein A1 = target: T6, Bcl-2-related protein A1 (Mus musculus, UniProt Q07440); type: functional;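 further: confirmatory dose–response counterscreen on Bfl-1, used to check hits from a UBC13 polyubiquitin inhibitor campaign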
T6 sequence (Q07440 whole entry): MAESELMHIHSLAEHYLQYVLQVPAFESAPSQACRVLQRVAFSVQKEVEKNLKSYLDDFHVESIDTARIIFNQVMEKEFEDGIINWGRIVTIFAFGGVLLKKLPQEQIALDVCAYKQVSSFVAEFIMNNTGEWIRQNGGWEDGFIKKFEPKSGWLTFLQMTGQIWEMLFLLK

[10] = target: T7, Ubiquitin-conjugating enzyme E2 N (Homo sapiens, UniProt P61088); type: functional
T7 sequence (P61088 whole entry): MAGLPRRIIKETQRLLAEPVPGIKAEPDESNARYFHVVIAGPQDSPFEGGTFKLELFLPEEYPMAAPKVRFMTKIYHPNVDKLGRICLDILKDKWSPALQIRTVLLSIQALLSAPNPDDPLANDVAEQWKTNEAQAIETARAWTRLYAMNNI

[11] = target: T7, Ubiquitin-conjugating enzyme E2 N; type: functional; remark: listed apart in the source
[12] = target: T8, Microphthalmia-associated transcription factor (Homo sapiens, UniProt O75030); assay: reducers of TRPM1 reporter luminescence, concentration series – cell-based, SK-MEL-5, cherry-picked, set 3, MITF inhibitor project, dose response (AID 493073); type: functional;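 further: SK-MEL-5 melanoma cells with luciferase driven by the MITF target TRPM1 promoter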
T8 sequence (O75030 whole entry): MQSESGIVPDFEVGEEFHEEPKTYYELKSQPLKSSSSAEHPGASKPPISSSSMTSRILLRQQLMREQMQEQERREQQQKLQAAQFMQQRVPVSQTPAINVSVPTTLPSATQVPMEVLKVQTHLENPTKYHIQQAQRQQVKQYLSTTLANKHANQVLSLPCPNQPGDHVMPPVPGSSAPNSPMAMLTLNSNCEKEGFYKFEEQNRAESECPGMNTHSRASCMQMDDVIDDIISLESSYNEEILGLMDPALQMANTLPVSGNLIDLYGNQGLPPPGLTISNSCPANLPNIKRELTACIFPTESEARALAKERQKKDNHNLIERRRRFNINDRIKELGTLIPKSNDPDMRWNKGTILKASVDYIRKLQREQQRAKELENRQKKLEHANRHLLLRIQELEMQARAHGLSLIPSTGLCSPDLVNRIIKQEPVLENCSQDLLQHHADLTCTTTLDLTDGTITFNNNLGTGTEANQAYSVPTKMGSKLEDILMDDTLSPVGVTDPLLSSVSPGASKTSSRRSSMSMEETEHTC

[13] = decrease of insulin promoter-GFP reporter – imaging, high-content screening, mouse beta cells (AID 1628); type: functional; conditions: MIN6
[14] = NIH3T3 cell viability loss – ATP luminescence, mouse fibroblasts, counter-screen, dose response (AID 2010); type: functional, cell-based;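 further: cells exposed to compound for about 90 hours before reading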
[15] = target: Heat shock protein HSP 90-alpha (Homo sapiens, UniProt P07900); type: functional, organism-based
INS1 = assay: INS-1E survival protection against cytokine death – cell-based, luminescence, retest, dose response (AID 449756); type: functional; conditions: Rattus norvegicus;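 further: cell death triggered by IL-1 beta plus TNF-alpha plus IFN-gamma mixture; protective hits raise ATP signal compared with cytokine alone wells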
[16] = Trypanosoma cruzi growth suppression in host cells – NIH3T3 host cells, beta-gal luminescence, confirmation (AID 2044); type: functional, cell-based;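 further: intracellular parasites grown in NIH/3T3 mouse fibroblasts as host cells; luminescent beta-galactosidase reporter signal from transgenic T. cruzi replicating inside host cells; inhibitors lower the luminescence signal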
[17] = MIN6 cell viability loss – mouse insulinoma, cytotoxicity control, dose response (AID 2122); type: functional;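 further: confirmatory high-throughput counterscreen run to flag cytotoxic compounds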

Sequence of ATP-dependent molecular chaperone HSP82 (C4YTQ8 whole entry): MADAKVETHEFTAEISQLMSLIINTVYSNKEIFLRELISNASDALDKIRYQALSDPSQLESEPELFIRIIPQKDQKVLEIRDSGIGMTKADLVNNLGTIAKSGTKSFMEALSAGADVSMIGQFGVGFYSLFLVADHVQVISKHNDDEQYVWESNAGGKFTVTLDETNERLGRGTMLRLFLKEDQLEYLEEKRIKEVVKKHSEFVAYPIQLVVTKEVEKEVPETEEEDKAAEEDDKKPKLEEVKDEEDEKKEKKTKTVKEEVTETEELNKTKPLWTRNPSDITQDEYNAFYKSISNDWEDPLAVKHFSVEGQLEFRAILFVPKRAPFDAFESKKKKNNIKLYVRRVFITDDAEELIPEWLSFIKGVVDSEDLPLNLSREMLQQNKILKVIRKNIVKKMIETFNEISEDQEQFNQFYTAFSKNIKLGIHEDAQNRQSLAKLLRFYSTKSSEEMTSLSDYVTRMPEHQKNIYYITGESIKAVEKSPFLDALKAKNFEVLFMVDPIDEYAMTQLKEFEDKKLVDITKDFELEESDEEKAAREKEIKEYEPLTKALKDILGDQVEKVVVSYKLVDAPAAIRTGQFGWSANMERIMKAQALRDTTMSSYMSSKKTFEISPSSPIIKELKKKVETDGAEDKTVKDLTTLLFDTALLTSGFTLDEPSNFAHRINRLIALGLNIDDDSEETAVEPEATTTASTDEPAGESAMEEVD
Sequence of Cytochrome P450 2C19 (P33261 whole entry): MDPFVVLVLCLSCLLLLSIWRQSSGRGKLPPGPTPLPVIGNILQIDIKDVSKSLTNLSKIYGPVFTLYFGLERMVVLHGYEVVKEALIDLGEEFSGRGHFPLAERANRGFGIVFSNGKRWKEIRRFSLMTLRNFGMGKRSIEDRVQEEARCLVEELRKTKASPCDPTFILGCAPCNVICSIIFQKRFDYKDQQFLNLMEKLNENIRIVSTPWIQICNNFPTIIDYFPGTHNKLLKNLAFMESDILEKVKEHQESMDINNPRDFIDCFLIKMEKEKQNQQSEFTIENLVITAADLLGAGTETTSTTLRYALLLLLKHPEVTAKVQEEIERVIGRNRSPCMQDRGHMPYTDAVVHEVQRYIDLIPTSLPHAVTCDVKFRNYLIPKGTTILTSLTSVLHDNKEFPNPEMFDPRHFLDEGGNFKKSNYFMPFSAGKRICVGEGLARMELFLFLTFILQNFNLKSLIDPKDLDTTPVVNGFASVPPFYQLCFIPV
Sequence of Genome polyprotein (P29990 2492-3391 limits assumed): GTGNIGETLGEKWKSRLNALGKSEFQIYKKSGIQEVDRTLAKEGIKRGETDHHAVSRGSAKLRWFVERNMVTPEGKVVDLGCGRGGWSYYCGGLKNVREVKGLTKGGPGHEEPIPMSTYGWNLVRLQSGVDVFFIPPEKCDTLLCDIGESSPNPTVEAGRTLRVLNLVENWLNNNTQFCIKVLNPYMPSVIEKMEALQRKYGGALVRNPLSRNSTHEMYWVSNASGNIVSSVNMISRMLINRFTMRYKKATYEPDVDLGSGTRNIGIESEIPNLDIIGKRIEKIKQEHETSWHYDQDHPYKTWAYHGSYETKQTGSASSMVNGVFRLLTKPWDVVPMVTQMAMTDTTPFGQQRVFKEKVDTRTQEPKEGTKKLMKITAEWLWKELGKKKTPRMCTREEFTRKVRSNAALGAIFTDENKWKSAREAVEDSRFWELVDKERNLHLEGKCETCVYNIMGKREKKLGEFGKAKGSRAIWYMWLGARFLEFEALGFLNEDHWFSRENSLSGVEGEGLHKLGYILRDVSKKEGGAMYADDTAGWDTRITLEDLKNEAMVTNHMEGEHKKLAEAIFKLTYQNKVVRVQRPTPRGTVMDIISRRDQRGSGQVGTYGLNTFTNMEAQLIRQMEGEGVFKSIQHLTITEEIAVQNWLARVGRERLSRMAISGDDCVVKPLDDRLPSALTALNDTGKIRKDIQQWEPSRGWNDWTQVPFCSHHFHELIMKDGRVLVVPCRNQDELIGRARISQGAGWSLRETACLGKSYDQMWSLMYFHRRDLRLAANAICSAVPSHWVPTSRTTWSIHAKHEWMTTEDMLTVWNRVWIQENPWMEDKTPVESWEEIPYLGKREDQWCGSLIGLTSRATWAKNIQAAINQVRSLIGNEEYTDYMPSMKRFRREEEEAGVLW
Sequence of Cytochrome P450 2C9 (P11712 whole entry): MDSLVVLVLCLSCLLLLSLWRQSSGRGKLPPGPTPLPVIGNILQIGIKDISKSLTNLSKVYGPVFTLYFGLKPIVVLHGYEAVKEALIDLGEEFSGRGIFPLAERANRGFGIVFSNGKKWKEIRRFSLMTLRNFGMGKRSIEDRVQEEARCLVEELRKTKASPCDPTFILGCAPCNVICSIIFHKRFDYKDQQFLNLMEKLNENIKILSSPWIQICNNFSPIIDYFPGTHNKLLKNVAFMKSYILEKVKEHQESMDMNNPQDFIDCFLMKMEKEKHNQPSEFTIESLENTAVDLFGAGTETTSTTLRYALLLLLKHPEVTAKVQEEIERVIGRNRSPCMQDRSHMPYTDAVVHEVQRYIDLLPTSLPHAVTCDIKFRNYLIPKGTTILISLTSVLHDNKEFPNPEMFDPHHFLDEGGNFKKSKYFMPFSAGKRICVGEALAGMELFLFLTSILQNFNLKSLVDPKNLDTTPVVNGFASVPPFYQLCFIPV

CN1CCN(c2oc(Cc3cccc4ccccc34)nc2C#N)CC1
IC50 [1]: 4.74 µM (active) | IC50 [2]: 1.66 µM (active)

Nc1ncnc2c1ncn2C1OC(CO)C(O)C1O (stereo not drawn)
GI50 (P388/ADR): 14.5 µM (inactive) | GI50 (SN12K1): > 74 µM (inactive) | EC50 [3]: 1.55 µM (active) | IC50 [1]: 0.515 µM (active) | IC50 [2]: 0.588 µM (active) | GI50 (P388): 16.4 µM (inactive)

Cc1nnc(NC(=O)CSc2ncnc3c2cnn3-c2ccccc2C)s1
AC50 (Cytochrome P450 2C19): inconclusive | EC50 [4]: > 150 µM (inactive) | EC50 [5]: > 150 µM (inactive) | EC50 [6]: > 180 µM (inactive) | EC50 [7]: 0.573 µM (active)

COc1cc(/C=N\Nc2ccc([N+](=O)[O-])cc2)ccc1OCC(=O)Nc1ccc(C)c(C)c1
CC50 (Vero): > 40 µM (active) | AC50 (Cytochrome P450 2C9): 3.16 µM (inconclusive) | EC50 [8]: 234 µM (inconclusive) | IC50 (Genome polyprotein): 26.3 µM (active) | AC50 (Cytochrome P450 1A2): 7.08 µM (inconclusive) | EC50 [9]: > 300 µM (not active)

Cc1nn(-c2ccccn2)c2nc(-c3cccs3)cc(C(=O)NCc3ccco3)c12
CC50 (Vero): > 40 µM (active)

CC1(C)Cc2c(sc(NC(=O)C(=O)N3CCCC3)c2C(N)=O)CO1
IC50 (Bcl-2-related protein A1): > 20 µM (inactive) | IC50 [10]: 1.47 µM (active) | IC50 [11]: 9.62 µM (active)

O=C(N/N=C/c1ccc(O)c2ncccc12)c1cccc(Br)c1
AC50 [12]: 7.28 µM (active) | IC50 [13]: 1.67 µM (active) | EC50 [14]: 5.44 µM (active) | EC50 [4]: > 160 µM (inactive) | EC50 [5]: 22.2 µM (active) | EC50 [6]: > 180 µM (inactive) | EC50 [7]: 0.729 µM (active) | AC50 [15]: 3.83 µM (active) | AC50 (INS1): 1.22 µM (active) | EC50 [16]: 1.66 µM (active) | IC50 [17]: 1.68 µM (active)

Cn1cncc1C#Cc1c(-c2ccc(S(C)(=O)=O)cc2)sc2ccccc12
IC50 (Bcl-2-related protein A1): > 20 µM (inactive) | IC50 [10]: 3.37 µM (active) | IC50 [11]: 8.84 µM (active)

O=C(COC(=O)c1cc(-c2ccc(Cl)s2)nc2ccccc12)NCc1ccco1
CC50 (Vero): > 40 µM (active)
